These results are taken from ChEMBL document CHEMBL6109064, “Functional and structural polypharmacology of indazole-based privileged ligands to tackle the undruggability of membrane transporters” (Eur J Med Chem, 2025).

Activity calls are given as the source filed them. No cut-off for these calls is given here.

Type in all cases: cell-based
In data set [1] the target is T1, Solute carrier organic anion transporter family member 1B3 (Homo sapiens, UniProt Q9NPD5).
T1 sequence (Q9NPD5 whole entry): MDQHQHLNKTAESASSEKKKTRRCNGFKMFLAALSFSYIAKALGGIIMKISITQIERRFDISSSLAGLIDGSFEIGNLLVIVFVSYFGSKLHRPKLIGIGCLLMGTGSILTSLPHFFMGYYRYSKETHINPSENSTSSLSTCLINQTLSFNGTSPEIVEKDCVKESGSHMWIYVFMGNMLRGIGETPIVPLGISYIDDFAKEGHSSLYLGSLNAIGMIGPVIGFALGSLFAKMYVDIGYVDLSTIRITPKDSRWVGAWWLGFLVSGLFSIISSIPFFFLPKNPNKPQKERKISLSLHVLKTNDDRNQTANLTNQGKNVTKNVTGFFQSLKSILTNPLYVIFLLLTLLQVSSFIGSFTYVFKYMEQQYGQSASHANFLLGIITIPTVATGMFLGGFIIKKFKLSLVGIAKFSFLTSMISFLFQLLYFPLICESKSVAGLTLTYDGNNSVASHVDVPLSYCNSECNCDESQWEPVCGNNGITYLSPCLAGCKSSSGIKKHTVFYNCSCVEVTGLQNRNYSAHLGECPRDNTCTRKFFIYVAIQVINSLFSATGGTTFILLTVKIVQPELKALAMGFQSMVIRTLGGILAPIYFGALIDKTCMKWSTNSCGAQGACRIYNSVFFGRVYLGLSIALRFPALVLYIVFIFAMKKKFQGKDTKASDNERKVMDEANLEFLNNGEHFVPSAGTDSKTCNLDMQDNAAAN
Nature of the data set: Inhibition of OATP1B3 (unknown origin) transfected in human A-431 cells assessed as inhibition of DHPDS uptake preincubated for 5 mins followed by DHPDS addition and measured after 10 mins by fluorescence based analysis.

For data set [2], the target named is T2, ATP-binding cassette sub-family C member 10 (Homo sapiens, UniProt Q5T3U5).
T2 sequence (Q5T3U5 whole entry): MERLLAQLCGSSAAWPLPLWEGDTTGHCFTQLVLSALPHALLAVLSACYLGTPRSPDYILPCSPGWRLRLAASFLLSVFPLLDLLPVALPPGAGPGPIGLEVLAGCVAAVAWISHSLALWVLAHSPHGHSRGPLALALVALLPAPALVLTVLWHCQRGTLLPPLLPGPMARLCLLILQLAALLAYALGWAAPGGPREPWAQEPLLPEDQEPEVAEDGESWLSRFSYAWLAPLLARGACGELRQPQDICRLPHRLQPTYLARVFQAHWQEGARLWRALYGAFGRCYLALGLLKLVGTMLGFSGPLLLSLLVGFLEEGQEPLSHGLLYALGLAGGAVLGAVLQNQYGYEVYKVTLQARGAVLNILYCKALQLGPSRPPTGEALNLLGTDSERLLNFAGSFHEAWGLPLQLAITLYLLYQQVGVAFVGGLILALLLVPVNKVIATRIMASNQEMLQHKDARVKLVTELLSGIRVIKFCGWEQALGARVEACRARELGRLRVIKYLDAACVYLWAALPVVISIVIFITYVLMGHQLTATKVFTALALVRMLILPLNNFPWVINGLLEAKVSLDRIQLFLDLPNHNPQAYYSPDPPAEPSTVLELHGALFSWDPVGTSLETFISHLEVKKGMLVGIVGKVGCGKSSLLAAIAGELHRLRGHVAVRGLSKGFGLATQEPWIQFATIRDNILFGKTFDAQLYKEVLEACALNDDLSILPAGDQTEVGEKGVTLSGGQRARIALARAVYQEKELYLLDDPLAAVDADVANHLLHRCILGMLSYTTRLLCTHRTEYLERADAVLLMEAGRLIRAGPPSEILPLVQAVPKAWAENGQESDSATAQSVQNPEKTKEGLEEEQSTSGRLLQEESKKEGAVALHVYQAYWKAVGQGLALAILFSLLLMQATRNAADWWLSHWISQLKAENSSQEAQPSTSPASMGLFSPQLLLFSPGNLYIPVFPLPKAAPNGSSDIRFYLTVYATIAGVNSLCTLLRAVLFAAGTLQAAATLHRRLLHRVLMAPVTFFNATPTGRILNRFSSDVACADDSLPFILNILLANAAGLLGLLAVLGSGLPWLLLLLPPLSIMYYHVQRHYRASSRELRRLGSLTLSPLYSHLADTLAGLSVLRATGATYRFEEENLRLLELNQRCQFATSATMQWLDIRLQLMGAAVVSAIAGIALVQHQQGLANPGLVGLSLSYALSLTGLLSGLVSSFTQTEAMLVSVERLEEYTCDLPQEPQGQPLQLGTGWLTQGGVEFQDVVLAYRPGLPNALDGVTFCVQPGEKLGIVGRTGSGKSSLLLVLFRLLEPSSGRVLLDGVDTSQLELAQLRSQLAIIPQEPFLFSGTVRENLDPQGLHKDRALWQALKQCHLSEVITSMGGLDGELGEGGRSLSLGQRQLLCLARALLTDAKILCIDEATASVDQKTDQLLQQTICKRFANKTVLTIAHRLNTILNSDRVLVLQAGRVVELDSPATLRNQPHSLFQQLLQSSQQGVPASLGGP
The experiment in a line: Reversal of ABCC10 (unknown origin) -mediated multidrug resistance transfected in human HEK293 MRP7 cells assessed as increase in paclitaxel-mediated cytotoxicity incubated for 68 hrs in presence of paclitaxel by MTT assay.

Data set [3] concerns the target Sodium-dependent dopamine transporter (Homo sapiens) (UniProt Q01959). The experiment in a line: Inhibition of DAT (unknown origin) expressed in HEK293 cells assessed as inhibition of MPP+ transport incubated for 5 mins by tandem mass spectrometry.
The target in data set [4] is T3, Solute carrier family 22 member 1 (Homo sapiens, UniProt O15245).
T3 sequence (O15245 whole entry): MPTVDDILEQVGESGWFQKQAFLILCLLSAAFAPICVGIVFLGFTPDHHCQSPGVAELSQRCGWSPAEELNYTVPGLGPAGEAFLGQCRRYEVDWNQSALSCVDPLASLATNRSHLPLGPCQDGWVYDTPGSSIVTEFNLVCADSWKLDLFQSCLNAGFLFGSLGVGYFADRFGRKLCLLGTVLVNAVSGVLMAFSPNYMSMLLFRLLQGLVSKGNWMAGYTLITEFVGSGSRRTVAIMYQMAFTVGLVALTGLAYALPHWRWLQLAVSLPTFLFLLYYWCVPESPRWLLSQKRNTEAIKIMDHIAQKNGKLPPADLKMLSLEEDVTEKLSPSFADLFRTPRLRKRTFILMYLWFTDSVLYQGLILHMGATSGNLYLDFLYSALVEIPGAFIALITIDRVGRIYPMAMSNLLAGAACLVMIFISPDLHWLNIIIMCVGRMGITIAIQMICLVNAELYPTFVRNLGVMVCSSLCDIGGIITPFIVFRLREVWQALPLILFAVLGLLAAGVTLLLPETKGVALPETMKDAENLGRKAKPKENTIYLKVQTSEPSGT
Nature of the data set: Inhibition of OCT1 (unknown origin) expressed in HEK293 cells assessed as inhibition of ASP+ uptake incubated for 5 mins by fluorescence based analysis. As to conditions: hek293, 5 min.

Sequence of Sodium-dependent dopamine transporter (Homo sapiens) (Q01959 whole entry): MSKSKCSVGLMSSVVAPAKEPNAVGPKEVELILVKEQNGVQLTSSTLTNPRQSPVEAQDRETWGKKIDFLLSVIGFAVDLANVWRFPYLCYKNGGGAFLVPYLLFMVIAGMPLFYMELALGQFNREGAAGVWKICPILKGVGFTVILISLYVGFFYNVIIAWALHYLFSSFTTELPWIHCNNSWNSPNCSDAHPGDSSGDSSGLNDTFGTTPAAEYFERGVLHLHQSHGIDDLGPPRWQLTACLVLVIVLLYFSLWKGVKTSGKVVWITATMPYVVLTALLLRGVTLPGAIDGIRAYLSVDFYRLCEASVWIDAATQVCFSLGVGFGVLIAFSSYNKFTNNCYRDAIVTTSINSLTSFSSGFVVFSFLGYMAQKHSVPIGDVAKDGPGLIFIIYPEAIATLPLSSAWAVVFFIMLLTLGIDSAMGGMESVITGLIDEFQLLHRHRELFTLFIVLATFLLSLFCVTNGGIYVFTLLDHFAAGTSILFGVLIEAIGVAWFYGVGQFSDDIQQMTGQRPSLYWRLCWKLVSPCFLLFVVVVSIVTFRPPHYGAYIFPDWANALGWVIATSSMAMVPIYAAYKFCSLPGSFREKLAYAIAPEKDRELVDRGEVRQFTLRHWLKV

`COc1cccc(NC(=O)Cn2nc(C(=O)Nc3cccc(OC)c3)c3ccccc32)c1`: in data set [1], the IC50 (usually the concentration that gives 50% inhibition) is 2290 nM. For the same compound, the EC50 entry in data set [2] was “Not_active”. In addition, the inhibition entry in data set [3] is “inactive”. The “inhibition (INH)” value in data set [4] is “Not_active”.

Regarding `O=C(Cn1nc(C(=O)Nc2ccccn2)c2ccccc21)Nc1cc(Cl)ccc1Cl`, the concentration for half-maximal inhibition (IC50) in data set [1] turned out to be 14100 nM. For the same compound, in data set [2], the EC50 entry is reported as “Not_active”. Besides, in data set [3], the inhibition result is “inactive”. Further, the “inhibition (INH)” value in data set [4] is “Not_active”.

As for `O=C(Cn1nc(C(=O)Nc2cccnc2)c2ccccc21)Nc1ccc(Cl)cc1`, in data set [1], the IC50 was 1840 nM. For the same compound, the inhibition result in data set [3] was “inactive”. For the same compound, the “inhibition (INH)” value in data set [4] was “Not_active”.

As to `COc1cccc(NC(=O)c2nn(CC(=O)Nc3ccccc3OC)c3ccccc23)c1`, the IC50 in data set [1] was 1800 nM. For the same compound, the EC50 entry in data set [2] is given as “Not_active”. In addition, in data set [3], the inhibition entry was “inactive”. In addition, the “inhibition (INH)” value in data set [4] is reported as “Not_active”.
